Source: patent US7557085B2, “Metabolic-based methods for modulating gene expression” (Wisconsin Alumni Research Foundation, priority 2005, dated 2009)

Assays:
[1] = format: in vivo; details: rats
Procedure: Dosage amount and interval of administration of compounds of the present invention can be adjusted individually to reduce seizure frequency, duration or intensity. For example, doses of 250 mg/kg 2-DG or less to higher as tolerated can be used to reduce seizure frequency and minimize toxicity. Doses of as much as 2000 mg/kg 2-DG are well tolerated in rats. […] A practitioner skilled in the art can adjust dosage in the range up to 500-600 mg/kg 2-DG and the timing of administration to produce prolonged anticonvulsant and antiepileptic effects. Efficacious dosage amounts can be adjusted to about 14 mg/kg 2-DG in children and 40 mg/kg 2-DG in adults, using therapeutic efficacy measurements (e.g., reduction in frequency or severity of seizures) as a criterion for establishing effective dosage levels.

BDNF = test: QRT-PCR of hippocampal tissue from kindled rats, BDNF; format: in vivo, rat
From the text: (§1) Values plotted are BDNF or TrkB expression over Actin using rat hippocampal cDNA from an untreated rat for a standard curve. Specifically, mRNA was extracted from hippocampus tissue from rats treated with 2-DG or untreated control rats subjected to kindling stimulation to mimic epilepsy. […] The levels of actin mRNA were not affected by 2-DG treatment. Importantly, the differences in expression of BDNF or TrkB in the absence or presence of 2DG were present after 5 ADs in association with a large difference in AD threshold between 2DG-treated and control rats (FIG. 3 lanes 5 versus 6 and 7 versus 8).

TrkB = test: QRT-PCR of hippocampal tissue from kindled rats, TrkB; format: in vivo, rat
From the text: as §1

actin = test: QRT-PCR of hippocampal tissue from kindled rats, actin; format: in vivo, rat; details: hippocampus, 2-DG treatment versus control
From the text: as §1

[2] = test system: NRSF target genes Sodium Type II (NaV1.2), BDNF, CHRM4; test: QRT-PCR of chromosomal NRSF target genes in JTC-19 cells; format: cell-based, rat; details: 1 mM 2-DG for 24 hrs
From the text: (§2) FIG. 5 are graphs showing the results of quantitative reverse-transcriptase-PCR experiments, wherein NaV1.2 is sodium type II (NaV1.2); BDNF is Brain Derived Neurotrophic Factor (BDNF) and CHRM4 is muscarinic acetylcholine receptor type 4 (CHRM4), all genes repressed by NRSE/NRSF, and actin (not an NRSF target).
(§3) Firefly luciferase measurements were normalized to co-transfected pRL-TK and expressed as fold repression (gal4 DBD/gal4-NRSF). Values are the average of at least three experiments performed in triplicate. Error bars indicate standard errors. […] In these experiments, cells were grown in the presence or absence of 1 mM 2-DG for 24 hrs, harvested and RNA subjected to QRT-PCR with primers to the NRSF target genes Sodium Type II (NaV1.2), Brain Derived Neurotrophic Factor (BDNF) and Muscarinic Acetylcholine Receptor Type 4 (CHRM4) or actin (not an NRSF target). Rat hippocampal cDNA was used to generate a standard curve and values plotted are microliter equivalents of hippocampal cDNA.

[3] = test system: actin (not an NRSF target); test: QRT-PCR of actin in JTC-19 cells; format: cell-based, rat; details: 1 mM 2-DG for 24 hrs
From the text: as §2, §3

CHRM4 [4] = test: QRT-PCR of CHRM4 in CtBP1/CtBP2 mutant Mouse Embryonic Fibroblasts; format: cell-based; details: 1 mM 2-DG
Procedure: FIG. 7C is a graph of normalized CHRM4 expression in MEFs bearing an inactivating mutation in heterozygous (−/+) or homozygous (−/−) state for both CtBP1 and CtBP2, assayed in the presence of absence of 2-DG.
To test whether CtBP was required for NRSF repression of chromosomal genes, expression levels of NRSF target genes were assayed in Mouse Embryonic Fibroblasts (MEFs) heterozygous or homozygous for deletions of both CtBP1 and CtBP2 (as described in Hildebrand & Soriano, 2002, Mol Cell Biol 22: 5296-307). In these experiments, wild type MEFs or MEFs heterozygous (CtBP1^−/+2^−/+) or homozygous (CtBP1^−/−2^−/−) for both CtBP1 and CtBP2 mutants were analyzed for CHRM4, Myelin Basic Protein (MBP) and hypoxanthine phosphoribosyl transferase (HPRT, as a non-NRSF regulated control) expression by QRT-PCR as described in Example 2. […] The expression levels of both genes were further elevated in CtBP1^−/−/2^−/− cells, consistent with a dose-responsive co-repressor function for CtBP.

CHRM4 [5] = test: ChIP in JTC-19 cells grown with 2-DG or glucose, CHRM4; format: cell-based, rat
From the text: To determine whether 2-DG mediated suppression of BDNF levels was associated with a decreased level of histone H3 Lysine^9 acetylation, hippocampii from 2-DG treated or control rats were crosslinked with 1% formaldehyde and subjected to chromatin immunoprecipitation assays (ChIPs), performed as in Roopra et al.(2004, Mol Cell 14: 727-38) with an antibody specific to acetylated H3-K9. The graphs shown in FIGS. 10A through 10C show the results of experiments in which the amount (in ng) of DNA associated with nucleosomes comprising modified or unmodified H3 histone proteins was detected for an endogenous, NRSE/NRSF-regulated gene (CHRM4) in JTC-19 cells grown in the presence of 2-DG or glucose. […] However, the amount of CtBP recruited to CHRM4, the NRSF target gene, increased 5-fold in the presence of 2-DG.

actin promoter = test: ChIP on hippocampi of rats administered 2-DG or saline, actin promoter; format: in vivo; details: rat hippocampi, without regard to the glycolytic state
From the text: FIG. 10I is a graph of CHIP assays performed on hippocampi from rats administered 2-DG or saline for 2 weeks and using a cocktail of anti-CtBP1 and anti-CtBP2 antibody or sham antibody and primers flanking the BDNF NRSE or actin promoter. Data is plotted as quantity of DNA specifically precipitated in picograms.
The above results predicted that CtBP would be present at the BDNF NRSF binding site in rat hippocampi and that occupancy at this site should be augmented in the presence of 2-DG. To test this prediction, ChIP assays were performed using anti-CtBP antibody on chromatin isolated from 2DG-treated rats as above. Hippocampi from rats administered 2-DG or saline for 2 weeks were subjected to ChIP with a cocktail of anti-CtBP1 and anti-CtBP2 antibody or sham antibody and primers flanking the BDNF NRSE or actin promoter. […] CtBP was not detected at the actin promoter without regard to the glycolytic state of the animal, as expected for a gene not under NRSF regulatory control.

[6] = rats that experienced 3 Class V seizures

## O=CC[C@@H](O)[C@H](O)[C@H](O)CO [2-DG, 2-deoxy-D-glucose]
[1]
  well tolerated dose: ≤ 2000 mg/kg
BDNF; QRT-PCR, expression over actin, FIG. 3 lanes 1 versus 2
  hippocampal BDNF expression compared to control animals: significantly reduced
BDNF; after 5 ADs
  difference in expression of BDNF in absence or presence of 2DG: present
BDNF; [6]
  BDNF expression, 2DG-treated versus control rats: no difference in expression
TrkB; QRT-PCR, expression over actin, FIG. 3 lanes 3 versus 4
  hippocampal TrkB expression compared to control animals: significantly reduced
TrkB; after 5 ADs
  difference in expression of TrkB in absence or presence of 2DG: present
TrkB; [6]
  TrkB expression, 2DG-treated versus control rats: no difference in expression
actin
  levels of actin mRNA: not affected
[2]
  expression of chromosomal NRSF target genes: repressed
[3]
  actin levels: unaffected
CHRM4 [4]; CtBP1-/+/2-/+ cells
  CHRM4 expression: repressed
CHRM4 [4]; CtBP1-/-/2-/- cells
  CHRM4 expression: not altered
CHRM4 [5]; in the presence of 2-DG
  H3-Lys9 acetylation levels at the CHRM4 promoter: reduced
  amount of mono- and di-methyl K9: increased
  amount of unmodified (de-acetylated) H3K9: increased
  increase of amount of CtBP recruited to CHRM4: 5 fold
CHRM4 [5]; presence or absence of 2-DG
  amount of NRSF, G9a and SIN3 at NRSF target genes: does not change
Actin promoter
  CtBP at the actin promoter: not detected
